The results in this text go back to PMC9574860, “Chemical Toolkit for PARK7: Potent, Selective, and High-Throughput” (Journal of Medicinal Chemistry, 2022).

Format in all cases: biochemical
The target in one test is T1, PARK7 (Homo sapiens, UniProt Q99497).
T1 sequence (Q99497 1-189): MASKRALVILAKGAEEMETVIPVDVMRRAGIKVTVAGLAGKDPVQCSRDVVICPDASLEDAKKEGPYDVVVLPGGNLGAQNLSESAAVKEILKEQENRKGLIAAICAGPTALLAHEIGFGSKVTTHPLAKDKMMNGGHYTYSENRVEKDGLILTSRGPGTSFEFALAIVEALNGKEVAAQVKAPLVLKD
The test can be described thus: DiFMUAc PARK7 activity assay. Further details: GST (N, cleaved yes); made in house; host or cells: E. coli BL21(DE3) Rosetta2.

Test [1] deals with T2, UCHL1 (Homo sapiens, UniProt P09936).
T2 sequence (P09936 1-223): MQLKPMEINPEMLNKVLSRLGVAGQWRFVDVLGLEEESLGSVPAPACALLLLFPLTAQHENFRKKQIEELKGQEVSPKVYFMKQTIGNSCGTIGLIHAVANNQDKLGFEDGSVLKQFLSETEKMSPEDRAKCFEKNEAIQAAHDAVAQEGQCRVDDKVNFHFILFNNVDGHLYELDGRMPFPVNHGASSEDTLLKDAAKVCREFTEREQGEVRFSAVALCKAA
As to the kind of experiment: Gel-based competition assay with probe 8RK59, UCHL1 band.

Test [2] concerns the target T2, UCHL1. The test can be described thus: UCHL1 activity assay (Ub-Rho-Morpholine or Ub-AMC substrate). The settings on record: UCHL1 1 nM, 1 h preincubation.

Structures are written as SMILES. pIC50: −log10 of the molar value. Where two headings read alike, the source gives them in different places.

With `N#CN1CC[C@@H](C(=O)Nc2nc3c(s2)CN(C(=O)CN=[N+]=[N-])CC3)C1` [JYQ-88, (R)-N-(5-(2-Azidoacetyl)-4,5,6,7-tetrahydrothiazolo[5,4-c]pyridin-2-yl)-1-cyanopyrrolidine-3carboxamide], the pIC50 (as a rule, the IC50 on a negative log10 scale, so that one unit is a factor of ten) at PARK7 (DiFMUAc assay, PARK7 0.1 μM, 1 h preincubation, DiFMUAc 300 μM) was 6.89; at UCHL1 [2] (Figure 3E, read-out: UCHL1 IC50), 4.95; at UCHL1 [2] (read-out: UbRhoMP assay UCHL1 IC50), 4.95. Also, the “Fold higher potency toward PARK7 than UCHL1” value on PARK7 (PARK7 IC50 (DiFMUAc) vs UCHL1 IC50) came out at 85 fold. Moreover, the “Inhibition of UCHL1 (disappearance of 8RK59-labeled band)” value on UCHL1 [1] (compound 2 μM, 1 h, PARK7 and UCHL1 1 μM each, then 8RK59 2 μM 30 min, Figure 3B) is recorded as “without inhibiting”. In addition, the “Concentration at which inhibition of UCHL1 was detected” value on UCHL1 [1] (direct competition, equal amounts of PARK7 and UCHL1, Figure 3F) is 20 µM.
